Measured values from patent US20110177161A1, “PHARMACEUTICAL COMPOSITIONS OF [5(S)-(2'-HYDROXYETHOXY)-20(S)-CAMPTOTHECIN” (DR. REDDY'S LABORATORIES LIMITED, priority 2007, published 2011).

How the values were obtained:
[1] = tested on: Saos-2 cells over expressing functional BCRP#4; test: cells; format: cell-based, human; details: Homo sapiens, SAOS-2, 144 h, read-out: BCRP mut#4 (IC50 (nM))
Protocol: (§1) The anticancer effect of 5(S)-(2′-hydroxyethoxy)-20(S)-camptothecin & 5(R)-(2′-hydroxyethoxy)-20(S)-camptothecin were evaluated versus the racemate 5(RS)-(2′-hydroxyethoxy)-20(S)-camptothecin on Saos-2 cells over expressing functional BCRP#4 and non-functional BCRP mut#10. The human osteosarcoma cell line, Saos-2, was obtained from ATCC (American Type Culture Collection, Cat#HTB-85, Manassas, Va.) and were maintained in DMEM containing 10% fetal bovine serum, 1% penicillin/streptomycin, and 2 mM glutamine. Saos-2 cells were transfected with either BCRP#4 to over express functional BCRP or BCRP#10 to over express non-functional BCRP transporter. The cells were plated in 96-well plates at a density of 1000 cells per each well in a 0.1 ml of medium and allowed to attach overnight. The next morning the medium was gently aspirated and serial dilutions of the compounds to be tested were added. The cells were incubated at 37° C. in a 5% CO2 incubator. After 6 days of exposure to the test drugs, 10µl of Alamar blue was added aseptically to each well and the plates were returned to the incubator for 6 hr. The amount of the fluorescent dye produced was measured on a Cytofluor.RTM. 2300 (Millipore, Bedford, Mass.) using an excitation wavelength of 530 nm and emission wavelength of 590 nm. The relative fluorescence units obtained were used to calculate the percentage growth at each concentration in relation to the untreated control values. From the percentage growth values the IC50 (inhibitory concentration required to inhibit the cell growth by 50% compared to control cells growth) values were derived.

[2] = tested on: Saos-2 cells over expressing non-functional BCRP mut#10; test: cells; format: cell-based, human; details: Homo sapiens, SAOS-2, 144 h, read-out: BCRP mut#10 (IC50 (nM))
Protocol: as §1

[3] = tested on: Human bone marrow mononuclear cells; test: Human bone marrow assay (CFU-GM colonies); format: cell-based; details: human
Protocol: Methocult.TM. GF (Cat No: H4534, Poietics, Biowhittakar, USA) medium comprising Methycellulose in iscove's MDM, Fetal bovine serum, Bovine serum albumin, 2-Mercaptoethanol, L-Glutamine, rhStem cell factor, rhGM-CSF and rhIL-3 was used for the assay. Human bone marrow mononuclear cells (Cat No. 2M-125C, Poietics, Biowhittakar, USA) were mixed with Methocult GF and the cell density was adjusted to 3×10^5 cells/ml. From this preparation, 500 μL aliquots were made and […] of 20× drug solution or vehicle was added to each aliquot and mixed thoroughly. 100 μL of clonogenic medium was plated into each well and the plates were allowed to gel at 4° C. for 15 minutes. Plates were incubated at 37 degree C. in a fully humidified atmosphere of 5% CO2 in an incubator for 14 days. CFU-GM colonies were counted under an inverted microscope as aggregates of 50 cells or more. The percentage colony inhibition was calculated using the following formula: 100−[(number of colonies in drug treated wells/Number of colonies in control wells)×100].

[4] = tested on: 34 human cancer cell lines; test: In vitro cell growth assay, Sulphorhodamine B (SRB); format: cell-based; details: 48 h exposure
Protocol: Cell proliferation was evaluated by Sulphorhodamine B (SRB) assay where the amount of dye bound to the cells after staining gives a measure of cell growth. Refer to: JNCI, vol 83, No. 11, Jun. 5, 1991, which is incorporated herein by reference.
Briefly, cells (34 human cancer cell lines represented by bladder, breast, CNS, colon, epidermoid, lung, ovarian, melanoma, prostate, renal and uterine cancers) were seeded on a 96-well cell culture plates at a concentration of 10,000 cells per well and incubated at 37 degree C. in a CO2 incubator. Twenty-four hours later, cells were treated with different concentrations of […] dissolved in DMSO to a final concentration of 0.05% in the culture medium and exposed for 48 h. Cells were fixed by adding ice-cold 50% trichloroacetic acid (TCA) and incubating for 1 h at 4° C. The plates were washed with distilled water, air dried and stained with SRB solution (0.4% wt/vol in 1% Acetic acid) for 10 min at room temperature. Unbound SRB was removed by washing thoroughly with 1% acetic acid and the plates were air-dried. The bound SRB stain was solubilized with 10 mM Tris buffer, and the optical densities were read on a spectrophotometric plate reader at a single wavelength of 515 nm. […] From the optical densities the percentage growths were calculated using the following formulae: […]

CC[C@@]1(O)C(=O)OCc2c1cc1n(c2=O)[C@H](OCCO)c2cc3ccccc3nc2-1 [5(R)-(2′-hydroxyethoxy)-20(S)-camptothecin, reference compound]
IC50 [1]: > 2000 nM | IC50 [2]: 1300 nM | Safety Margin GI90/GI50 [3]: 0.06 | GI50 [4]: 14600 nM
